Laboratory results as given in patent publication EP4700025A1, “AMIDE COMPOUND, PHARMACEUTICAL COMPOSITION COMPRISING SAME, AND USE THEREOF” (Suzhou Genhouse Bio Co., Ltd., priority 2023, dated 2024).

Columns and labels:
[1] = Pharmacokinetic assay in rats; format: in vivo, SD rats; settings: rat
Method: In this experimental example, the pharmacokinetic behavior of the test compounds after administration by intravenous injection (IV) and oral gavage (PO) in SD rats was tested.
On the day of administration, rats were weighed for actual body weight, and the administration volume was calculated. Each compound was tested in two groups with 3 rats in each group; one group was subjected to administration by single intravenous injection, and the other group was subjected to administration by single oral gavage. The whole blood samples were collected via the jugular vein at prescribed time points (0.25 h, 0.5 h, 1 h, 2 h, 4 h, 8 h, and 24 h after administration). After the blood sample collection, the samples were immediately transferred to labeled commercial sample tubes containing K2-EDTA (0.85-1.15 mg), followed by centrifugation (3200× g, 4 °C, 10 min) and plasma collection. The plasma was transferred to a pre-cooled centrifuge tube, frozen in dry ice, and then stored in an ultra-low temperature freezer at -60 °C or lower until the LC-MS/MS analysis was performed.
Plasma concentrations were determined by the LC-MS/MS method. Plasma drug concentration data for the compounds were processed using a non-compartmental model in the WinNonlin Version 6.3 (Pharsight, Mountain View, CA) pharmacokinetic software. The relevant pharmacokinetic parameters were calculated by a linear-log trapezoidal method.

[2] = biological target: T1, hERG Potassium Ion Channel (Homo sapiens, UniProt Q12809); test: Effect on hERG potassium ion channel (whole-cell patch clamp, HEK293 cells); format: cell-based; settings: whole-cell patch clamp (Qpatch), room temperature
T1 construct: expressed in transfected cells; host or cells: HEK293
Method: HEK293 cells were cultured in a DMEM medium containing 10% fetal bovine serum and 0.8 mg/mL G418 at 37 °C with 5% CO2. The cells were digested by TrypLE™ Express and then centrifuged. The cell density was adjusted to 2 × 10^6 cells/mL. The cells were then gently mixed for 15 to 20 min using a shaker equilibrated at room temperature, and subjected to a patch clamp assay on a machine. The culture medium of the prepared cells was replaced with extracellular fluid. The intracellular fluid and the extracellular fluid were taken from the fluid pool and added to the intracellular fluid pool and the cell and test substance pool of the QPlate chip, respectively. The voltage stimulation of the whole-cell hERG potassium current was recorded by the whole-cell patch clamp, and the experimental data were collected and stored by Qpatch. […] The current detected in compound-free extracellular fluid for each cell served as its own control group, and the detection was repeated twice independently using at least two cells per concentration. […] For data analysis, the current after the action of each drug concentration and the current of the blank control were standardized ((Peak tail currentcompound)/(Peak tail currentvehicle)) [formula] , and then the inhibition rate corresponding to each drug concentration was calculated (1−(Peak tail currentcompound)/(Peak tail currentvehicle)) [formula] . […]

[3] = Pharmacokinetic assay in mice; format: in vivo, Balb/c mice; settings: male, Balb/c, plasma, mouse
Method: Eighteen male Balb/c mice aged 6 to 8 weeks were randomly divided into 2 groups (IV group and PO group). The corresponding compounds were administered to the animals in the IV group by tail intravenous injection at 2 mg/kg, and the corresponding compounds were administered to the animals in the PO group by oral gavage at 10 mg/kg or 100 mg/kg. The animals in the IV group were allowed free access to food and water, and the animals in the PO group were fasted overnight before administration and were fed 4 h after administration. Throughout the experiment, the animals were allowed free access to water. Plasma samples were separately collected at 0.083 h (only group IV), 0.25 h, 0.5 h, 1 h, 2 h, 4 h, 8 h, and 24 h after administration. About 100 µL of blood was collected from the orbit of the animal, placed into a 1.5 mL anticoagulation centrifuge tube, and centrifuged at 8000 rpm and 4 °C for 10 min. The upper plasma sample was transferred to an EP tube. The plasma samples were stored in a refrigerator at -80 °C until sample analysis. Pharmacokinetic parameters of the drug were calculated based on the drug concentration-time data, including the peak concentration Cmax, peak time Tmax, clearance rate CL, steady state apparent volume of distribution Vss, area under drug-time curve AUC, elimination half-life t1/2, bioavailability, and the like. Data below the 80% lower limit of quantification were excluded from the calculation of pharmacokinetic parameters.

[4] = SD, plasma, 100 mg/kg, PO 100mpk

T1 sequence (Q12809 whole entry): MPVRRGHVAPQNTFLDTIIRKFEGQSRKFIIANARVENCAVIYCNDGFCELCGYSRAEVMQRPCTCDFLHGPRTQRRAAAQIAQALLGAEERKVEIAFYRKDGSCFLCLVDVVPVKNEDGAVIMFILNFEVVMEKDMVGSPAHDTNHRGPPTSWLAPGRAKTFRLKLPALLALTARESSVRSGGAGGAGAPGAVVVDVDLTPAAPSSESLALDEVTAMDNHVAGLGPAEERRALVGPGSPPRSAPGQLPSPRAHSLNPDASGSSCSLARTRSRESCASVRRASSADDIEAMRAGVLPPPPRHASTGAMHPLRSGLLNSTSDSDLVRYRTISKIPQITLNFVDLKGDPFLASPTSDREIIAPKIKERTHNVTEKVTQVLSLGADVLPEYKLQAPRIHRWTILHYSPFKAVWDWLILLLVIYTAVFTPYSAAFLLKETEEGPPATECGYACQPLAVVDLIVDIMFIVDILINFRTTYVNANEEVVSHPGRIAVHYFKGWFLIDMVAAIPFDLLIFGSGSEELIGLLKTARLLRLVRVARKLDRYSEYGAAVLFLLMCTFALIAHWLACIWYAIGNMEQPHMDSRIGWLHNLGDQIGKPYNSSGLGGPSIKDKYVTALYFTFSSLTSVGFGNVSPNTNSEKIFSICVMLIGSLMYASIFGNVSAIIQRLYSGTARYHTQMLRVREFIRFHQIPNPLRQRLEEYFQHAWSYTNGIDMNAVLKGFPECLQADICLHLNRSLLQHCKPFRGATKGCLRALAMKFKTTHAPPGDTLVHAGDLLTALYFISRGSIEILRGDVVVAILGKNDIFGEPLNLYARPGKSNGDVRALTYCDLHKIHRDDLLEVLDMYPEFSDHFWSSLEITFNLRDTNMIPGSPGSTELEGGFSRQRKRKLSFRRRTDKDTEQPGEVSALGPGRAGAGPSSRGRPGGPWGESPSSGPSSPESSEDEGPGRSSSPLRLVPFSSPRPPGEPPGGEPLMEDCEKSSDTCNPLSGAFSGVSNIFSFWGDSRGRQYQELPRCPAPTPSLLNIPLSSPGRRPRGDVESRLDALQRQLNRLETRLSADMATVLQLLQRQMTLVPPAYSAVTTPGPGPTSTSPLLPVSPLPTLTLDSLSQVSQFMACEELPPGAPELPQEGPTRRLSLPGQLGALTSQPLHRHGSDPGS

AUC(0-t) ([1]; SD, plasma, 2 mg/kg, IV 2mpk): 4.75 µM·h | AUC(0-t) [1, 4]: 122 µM·h | Cmax [1, 4]: 5.42 µM | F ([1]; PO 100mpk vs IV 2 mpk): 51% | AUC(0-t) ([3]; 2 mg/kg, IV 2mpk): 9.6 µM·h | AUC(0-t) ([3]; 100 mg/kg, PO 100mpk): 455 µM·h | Cmax ([3]; 100 mg/kg, PO 100mpk): 35.7 µM
Structure (SMILES): Cn1ncc2c(N)nc3cnc(C(=O)N4CCOC[C@@H]4c4ccc(C(F)(F)F)cc4)cc3c21 [Control compound A, reference compound]
IC50 [2]: 13 µM
